Legend:
Assay in all cases: In vitro MMP inhibition analysis (fluorogenic peptide substrate cleavage), Ki
Type in all cases: biochemical
Human recombinant MMP-1 = molecular target: T1, Human recombinant MMP-1 (Homo sapiens, UniProt P03956)
T1 construct: made in house; host or cells: MMP-1-transfected HT-1080 cells (spent media)
T1 sequence (P03956 100-469): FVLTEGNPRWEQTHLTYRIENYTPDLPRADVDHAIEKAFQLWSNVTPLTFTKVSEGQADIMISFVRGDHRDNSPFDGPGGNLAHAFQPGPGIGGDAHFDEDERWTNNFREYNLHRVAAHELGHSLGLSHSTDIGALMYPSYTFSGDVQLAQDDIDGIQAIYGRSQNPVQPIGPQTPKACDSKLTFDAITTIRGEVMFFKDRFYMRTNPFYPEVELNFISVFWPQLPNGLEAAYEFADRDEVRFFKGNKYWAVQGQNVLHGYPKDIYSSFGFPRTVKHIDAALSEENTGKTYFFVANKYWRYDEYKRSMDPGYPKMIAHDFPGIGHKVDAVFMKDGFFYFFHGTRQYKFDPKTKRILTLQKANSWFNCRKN
Outline: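 APMA- or trypsin-activated recombinant human MMP-1 (purified from transfected HT-1080 medium) with 4 μM MCA/Dpa quenched fluorogenic peptide, 1 h at room temperature in Tris/NaCl/CaCl2 buffer pH 7.5; fluorescence ex 330/em 420 nm. Ki from Morrison-equation fit of rates, substrate at or below Km, uncorrected.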

Human recombinant MMP-14 = molecular target: T2, Human recombinant MMP-14 (Homo sapiens, UniProt P50281)
T2 construct: The catalytic domain enzyme was expressed in E. coli inclusion bodies, solubilized in urea; made in house
Outline: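 Refolded catalytic domain of MMP-14 expressed in E. coli, activated with APMA or trypsin, incubated 1 h at room temperature with 4 μM MCA-peptide substrate in Tris buffer pH 7.5 with CaCl2. Cleavage rate followed by fluorescence (ex 330/em 420 nm). Ki from Morrison-equation fit; substrate at or below Km, so no substrate correction.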

Human recombinant MMP-2 = molecular target: T3, Human recombinant MMP-2 (Homo sapiens, UniProt P08253)
T3 construct: made in house; host or cells: MMP-2-transfected p2AHT2 cells
T3 sequence (P08253 110-660): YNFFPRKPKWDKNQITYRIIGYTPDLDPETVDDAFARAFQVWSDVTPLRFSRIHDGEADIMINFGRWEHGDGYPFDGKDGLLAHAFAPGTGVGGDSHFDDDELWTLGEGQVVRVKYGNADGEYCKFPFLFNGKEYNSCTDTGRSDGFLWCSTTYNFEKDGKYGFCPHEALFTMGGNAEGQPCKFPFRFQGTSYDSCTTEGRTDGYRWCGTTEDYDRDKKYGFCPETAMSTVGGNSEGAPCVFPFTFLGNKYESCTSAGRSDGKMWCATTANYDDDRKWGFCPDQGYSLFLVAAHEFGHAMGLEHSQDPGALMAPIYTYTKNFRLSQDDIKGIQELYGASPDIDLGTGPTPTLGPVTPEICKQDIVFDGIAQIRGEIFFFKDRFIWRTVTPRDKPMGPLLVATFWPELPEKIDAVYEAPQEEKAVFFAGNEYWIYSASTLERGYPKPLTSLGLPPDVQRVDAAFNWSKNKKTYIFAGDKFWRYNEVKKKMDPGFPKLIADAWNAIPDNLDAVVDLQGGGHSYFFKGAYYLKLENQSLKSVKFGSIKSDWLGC
Outline: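 Human recombinant MMP-2 from transfected p2AHT2 cells was activated with APMA or trypsin and incubated 1 h at room temperature with compounds and 4 μM MCA-RPLGL(Dpa)ARER-NH2. Buffer was pH 7.5 Tris/NaCl/CaCl2, and fluorescence was read at ex 330/em 420 nm. Ki was fitted by Morrison's equation without substrate correction.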

Human recombinant MMP-9 = molecular target: T4, Human recombinant MMP-9 (Homo sapiens, UniProt P14780)
T4 construct: made in house; host or cells: MMP-9-transfected HT1080 cells (spent media)
Outline: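 Recombinant MMP-9 purified from transfected HT1080 cell media, activated with APMA, trypsin or recombinant MMP-3, assayed in Tris buffer pH 7.5 with CaCl2 and 4 μM fluorogenic MCA/Dpa peptide, 1 h at room temperature (ex 330/em 420 nm). Ki from Morrison-equation regression of velocity; substrate at or below Km, uncorrected.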

T4 sequence (P14780 107-707 limits assumed): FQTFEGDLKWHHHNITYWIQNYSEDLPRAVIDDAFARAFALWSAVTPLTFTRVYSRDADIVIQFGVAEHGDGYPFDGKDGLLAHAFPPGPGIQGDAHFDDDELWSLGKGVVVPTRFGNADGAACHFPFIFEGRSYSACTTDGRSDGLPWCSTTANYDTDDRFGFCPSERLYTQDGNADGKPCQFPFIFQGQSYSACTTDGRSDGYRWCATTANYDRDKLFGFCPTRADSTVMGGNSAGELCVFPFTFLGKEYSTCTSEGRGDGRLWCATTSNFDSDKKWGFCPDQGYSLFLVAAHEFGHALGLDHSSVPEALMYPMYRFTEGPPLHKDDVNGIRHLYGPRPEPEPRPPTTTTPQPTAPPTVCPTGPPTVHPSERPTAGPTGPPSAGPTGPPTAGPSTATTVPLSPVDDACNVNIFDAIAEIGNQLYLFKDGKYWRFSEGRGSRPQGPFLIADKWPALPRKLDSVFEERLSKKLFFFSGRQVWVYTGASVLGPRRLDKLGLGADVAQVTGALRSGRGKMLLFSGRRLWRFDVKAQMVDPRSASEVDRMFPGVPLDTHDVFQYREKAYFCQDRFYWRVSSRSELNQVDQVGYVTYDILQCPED

Ki (Human recombinant MMP-1; Table 2) | Ki (Human recombinant MMP-14; Table 2) | Ki (Human recombinant MMP-2; Table 2) | Ki (Human recombinant MMP-9; Table 2) | Ki (Human recombinant MMP-1; Table 1) | Ki (Human recombinant MMP-14; Table 1) | Ki (Human recombinant MMP-2; Table 1) | Ki (Human recombinant MMP-9; Table 1) | Compound
3860 nM | 283 nM | 0.66 nM | 0.44 nM | – | – | – | – | CCN1CCC(C(=O)NO)(S(=O)(=O)c2ccc(-c3ccc(-c4csc(C)n4)cc3)cc2)CC1 [Example 155]
9580 nM | 1220 nM | 0.37 nM | 0.42 nM | – | – | – | – | COCCN1CCC(C(=O)NO)(S(=O)(=O)c2ccc(-c3cnc(OCC(F)(F)C(F)(F)F)cn3)cc2)CC1 [Example 157]
1740 nM | 159 nM | 0.0835 nM | 0.112 nM | – | – | – | – | CCCCOc1cnc(-c2ccc(S(=O)(=O)C3(C(=O)NO)CCOCC3)cc2)cn1 [Example 73]
> 10000 nM | > 10000 nM | 53.7 nM | 76.6 nM | – | – | – | – | O=C(NO)C1(S(=O)(=O)c2ccc(-c3cnc(CCC(F)(F)C(F)(F)F)nc3)cc2)CCOCC1 [Example 142]
– | – | – | – | > 10000 nM | > 10000 nM | 2.02 nM | 1.67 nM | O=C(NO)C1(S(=O)(=O)c2ccc(-c3cnc(CCCC(F)(F)F)cn3)cc2)CCOCC1 [Example 58]
– | – | – | – | 6370 nM | 1110 nM | 0.12 nM | 0.25 nM | COCCN1CCC(C(=O)NO)(S(=O)(=O)c2ccc(-c3ccc(CCCC(F)(F)F)cn3)cc2)CC1 [Example 54]
2170 nM | 741 nM | 0.146 nM | 0.867 nM | – | – | – | – | CCN1CCC(C(=O)NO)(S(=O)(=O)c2ccc(-c3ccc(OCCCCO)cc3)cc2)CC1 [Example 118]
257 nM | 79.4 nM | 0.041 nM | 0.198 nM | – | – | – | – | O=C(NO)C1(S(=O)(=O)c2ccc(-c3ccc(-c4ccncc4)cc3)cc2)CCOCC1 [Example 141]

— patent US20060074243A1, “Hydroxamic acid and amide compounds and their use as protease inhibitors” (Pharmacia Corporation, priority 2002, published 2006)
